{"source": "patent US7358226B2", "about": "“Ultrasonic concentration of drug delivery capsules” (The Regents of the University of California, priority 2003, dated 2008)", "origin": "cited, not measured here", "key": {"P-gp": {"target": "T1, P-gp (Mus musculus, UniProt P21447)", "T1 construct": "host or cells: mouse brain in vivo (endogenous protein)", "T1 sequence (P21447 whole entry)": "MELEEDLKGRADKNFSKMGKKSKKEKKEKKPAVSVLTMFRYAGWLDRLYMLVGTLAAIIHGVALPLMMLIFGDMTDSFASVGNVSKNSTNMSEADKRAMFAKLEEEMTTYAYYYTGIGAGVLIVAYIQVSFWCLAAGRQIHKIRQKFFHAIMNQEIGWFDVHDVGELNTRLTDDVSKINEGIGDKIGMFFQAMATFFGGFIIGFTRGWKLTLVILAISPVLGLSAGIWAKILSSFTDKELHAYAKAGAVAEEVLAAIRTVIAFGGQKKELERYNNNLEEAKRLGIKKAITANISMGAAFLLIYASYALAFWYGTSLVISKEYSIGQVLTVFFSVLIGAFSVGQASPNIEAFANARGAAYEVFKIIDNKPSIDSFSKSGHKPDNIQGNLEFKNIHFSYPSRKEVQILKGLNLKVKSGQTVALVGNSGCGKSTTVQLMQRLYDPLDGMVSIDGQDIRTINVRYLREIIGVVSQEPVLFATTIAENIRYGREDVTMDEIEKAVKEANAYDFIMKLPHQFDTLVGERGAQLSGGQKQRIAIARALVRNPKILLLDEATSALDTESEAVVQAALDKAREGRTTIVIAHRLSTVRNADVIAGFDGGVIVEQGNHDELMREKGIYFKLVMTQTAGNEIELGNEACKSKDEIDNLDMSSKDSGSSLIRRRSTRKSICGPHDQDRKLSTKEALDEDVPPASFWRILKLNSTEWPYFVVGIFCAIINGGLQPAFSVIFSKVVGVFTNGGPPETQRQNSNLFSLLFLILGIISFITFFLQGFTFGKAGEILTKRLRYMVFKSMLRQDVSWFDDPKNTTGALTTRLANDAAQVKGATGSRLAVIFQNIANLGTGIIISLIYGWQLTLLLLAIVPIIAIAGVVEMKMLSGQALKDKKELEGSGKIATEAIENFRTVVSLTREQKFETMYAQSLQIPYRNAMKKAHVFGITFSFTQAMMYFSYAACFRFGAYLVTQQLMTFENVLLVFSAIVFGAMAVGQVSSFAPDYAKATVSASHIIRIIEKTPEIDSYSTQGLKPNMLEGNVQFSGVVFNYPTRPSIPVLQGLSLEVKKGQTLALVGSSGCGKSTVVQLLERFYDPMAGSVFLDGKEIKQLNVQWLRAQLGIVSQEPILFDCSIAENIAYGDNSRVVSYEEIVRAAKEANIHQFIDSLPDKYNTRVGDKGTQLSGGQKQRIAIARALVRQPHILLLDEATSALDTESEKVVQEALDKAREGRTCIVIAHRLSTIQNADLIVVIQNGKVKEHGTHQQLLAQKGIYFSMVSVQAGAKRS"}, "P-glycoprotein": {"target": "T2, P-glycoprotein (Mus musculus, UniProt P21447)", "T2 construct": "host or cells: mouse brain in vivo (endogenous protein)", "T2 sequence (P21447 whole entry)": "as above"}, "tumor": {"system": "tumor", "details": "paclitaxel alone"}}}
{"smiles": "CC(=O)O[C@H]1C(=O)[C@@]2(C)[C@H]([C@H](OC(=O)c3ccccc3)[C@]3(O)C[C@H](OC(=O)[C@H](O)[C@@H](NC(=O)c4ccc([18F])cc4)c4ccccc4)C(C)=C1C3(C)C)[C@]1(OC(C)=O)CO[C@@H]1C[C@@H]2O", "note": "[F18-fluoropaclitaxel]", "values": [{"measurement": "increase of F18-fluoropaclitaxel uptake in the brain", "setting": "P-gp; P-gp knockout mice relative to wildtype controls", "value": 1400, "unit": "%"}, {"measurement": "clearance", "setting": "P-gp; mouse, in vivo", "value": "rapid clearance"}, {"measurement": "tissue uptake", "setting": "P-gp; mouse, in vivo", "value": "high uptake in many tissues"}]}
{"smiles": "C/C=C/C[C@@H](C)C(=O)[C@H]1C(=O)N[C@@H](C(C)C)C(=O)N(C)CC(=O)N(C)[C@@H](CC(C)C)C(=O)N[C@@H](C(C)C)C(=O)N(C)[C@@H](CC(C)C)C(=O)N[C@@H](C)C(=O)N[C@H](C)C(=O)N(C)[C@@H](CC(C)C)C(=O)N(C)[C@@H](CC(C)C)C(=O)N(C)[C@@H](C(C)C)C(=O)N1C", "note": "[Valspodar]", "values": [{"measurement": "brain concentrations of paclitaxel", "setting": "P-glycoprotein; Valspodar co-administered with paclitaxel", "value": "significantly increase"}]}
{"smiles": "COc1cc2c(cc1OC)CN(CCc1ccc(NC(=O)c3cc(OC)c(OC)cc3NC(=O)c3cnc4ccccc4c3)cc1)CC2", "note": "[XR9576]", "values": [{"measurement": "increase of uptake of F18-fluoropaclitaxel", "setting": "P-gp; preadministration of XR9576, increase was not significant", "value": 20, "unit": "%"}]}
{"smiles": "CC(=O)O[C@H]1C(=O)[C@@]2(C)[C@H]([C@H](OC(=O)c3ccccc3)[C@]3(O)C[C@H](OC(=O)[C@H](O)[C@@H](NC(=O)c4ccccc4)c4ccccc4)C(C)=C1C3(C)C)[C@]1(OC(C)=O)CO[C@@H]1C[C@@H]2O", "note": "[paclitaxel, Paclitaxel]", "values": [{"measurement": "penetration of paclitaxel into the brain", "setting": "P-glycoprotein; P-glycoprotein knockout mice", "value": "markedly increased"}, {"measurement": "effect on tumor volume", "setting": "tumor", "value": "did not affect tumor volume"}]}
